The subject of series [1] is MAC 101 serotype 1. The conditions noted are these: cited from earlier work.
Series [2] concerns MAC 101 serotype 1. The series is described as follows: MIC against MAC 101 serotype 1 in culture. Type of series: cell-based, Mycobacterium avium complex. The conditions noted are these: strain 101 serotype 1, bacterial culture. On the procedure: Among the aminoglycosides, amikacin has been used for treating MAC infection due to its relatively low minimum inhibitory concentration, particularly in the case of certain MAC serotypes. […] Gentamicin would therefore not be expected to be effective in vivo since the toxic level of gentamicin is about 12 μg/ml in the blood, and therefore it is not possible to maintain patients at the inhibitory dose for sustained therapeutic periods. It would be desirable to treat M. avium infection in humans with gentamicin, however, because of the relatively low cost of the drug.

The subject of the next series is serotype 4 strain of MAC. The conditions noted are these: Yajko; cited from earlier work.
The test system of series [3] is MAC 101 (serotype 1). Put plainly: Efficacy against MAC infection in blood of beige mice. It is filed as in vivo, Mycobacterium avium complex; beige mice. The settings on record: for effect on viable MAC units in blood: 0.2 mg and 1.0 mg doses, five I.V. injections, day 7 to 22, FIGS. 2A, 2B; for effect on MAC in the blood: higher dose (1.0 mg). On the procedure:
(§1) Briefly, the animals were infected by I.V. injection of MAC, then treated with control, gentamicin, or gentamicin-liposome formulations 7 days later, with a total of five intravenous injections being given over a 9-day treatment period. The level of viable MAC units (cfu's) in the blood was examined at day 7 (before treatment), day 16 (immediately after the five treatment doses) and day 22. […] For both aminoglycoside drugs, dosages of 0.2 mg and 1.0 mg drug were given.
(§2) Immune deficient "beige" mice (Young, 1986) were infected intravenously with 5×10^6 of MAC 101 (serotype 1) on day 0. After 7 days, blood samples were drawn to quantitate the organisms in the blood prior to treatment. […] On the 16th day, the treated mice were bled and the number of viable MAC units in blood was determined. A week later (day 22), the mice were bled again and sacrificed. The liver and spleen were homogenized and the viable MAC were cultured in 7H10 agar for 10 days for colony counts.

The nature of series [4]: Renal clearance / drug excretion, free vs liposomal. Type of series: in vivo. The settings on record: after 4 days, mice. Here is the method: To examine the difference in drug clearance between free aminoglycoside and an aminoglycoside-liposome composition, free amikacin and amikacin-liposomes were administered to groups of mice, as above, and the amount of drug excreted by the animals over a several-day period was examined.

For series [5] the following is noted: cited from earlier work.
Series [6] deals with MAC 101 (serotype 1). The series is described as follows: Efficacy against MAC infection in liver and spleen of beige mice. It is filed as in vivo, Mycobacterium avium complex; beige mice. The conditions noted are these: for bacteriocidal effect in RES organs (liver, spleen), words: day 22, FIGS. 3A, 3B. On the procedure:
as §1, §2

A short description of series [7]: Tolerability of higher gentamicin dose in MAC-infected mice. Type of series: in vivo. The settings on record: about 4 mg per 20 gm mouse. The source says: This was confirmed by attempting to further reduce MAC infection by administering higher gentamicin dose.

“Also recorded” adds a separate entry of the source.

As a reminder, the MIC is the least concentration at which growth counts as inhibited.

Regarding `NCC[C@H](O)C(=O)N[C@@H]1C[C@H](N)[C@@H](O[C@H]2O[C@H](CN)[C@@H](O)[C@H](O)[C@H]2O)[C@H](O)[C@H]1O[C@H]1O[C@H](CO)[C@@H](O)[C@H](N)[C@H]1O` [amikacin], in the series on MAC 101 serotype 1 [1], the “minimum inhibitory concentration (MIC)” value is 2 to 4 µg/mL. For the same molecule, the “relative activity / MIC in MAC culture, amikacin vs gentamicin” value in the series on MAC 101 serotype 1 [2] was “nearly an order of magnitude less than that of gentamicin”. Besides, the minimal inhibitory concentration (MIC) with serotype 4 strain of MAC was 16 to 32 µg/mL. Further, in the series with MAC 101 (serotype 1) [3], the “effect on viable MAC units in blood” value is recorded as “largely ineffective” and the “effect on MAC in the blood” value is recorded as “significant inhibitory effect on MAC in the blood”. The “effect on viable MAC units in blood” value in the series on MAC 101 (serotype 1) [3] (listed as free amikacin) is “Qualitatively similar results”. Moreover, in series [4] (5760 min), the drug excreted entry is on record as “about 80%”. Besides, the dose excreted at 96 h in series [4] (mouse, in vivo, iv) is around 80%.

On to gentamicin, for which, in the series on MAC 101 serotype 1 [1], the “minimum inhibitory concentration (MIC)” value was 36 µg/mL. In addition, the “relative activity / MIC in MAC culture, amikacin vs gentamicin” value in the series with MAC 101 serotype 1 [2] was “substantially less active than free amikacin”. Also, in series [5], the “toxic level in the blood” value is reported as “about 12 μg/ml”. The “effect on MAC in the spleen” value with MAC 101 (serotype 1) [6] (both doses) is “moderate killing”. For the same molecule, the “bacteriocidal effect in RES organs (liver, spleen), words” value with MAC 101 (serotype 1) [6] (listed as Free gentamicin) is recorded as “only modest activity against infection in RES organs”; with MAC 101 (serotype 1) [6] (listed as free gentamicin) it was “about the same degree of bacteriocidal action as free amikacin”. Also, the entries for the “effect on MAC in the liver” value in the series on MAC 101 (serotype 1) [6] (high dose (1.0 mg/kg as printed)) and in the series with MAC 101 (serotype 1) [6] (low dose (0.2 mg/kg as printed)) were “moderate killing activity” and “inhibitory effect on the growth of MAC”, respectively. In addition, the “tolerability / animal deaths” value in series [7] is on record as “large percentage of animal deaths”. The MIC with serotype 4 strain of MAC was 16 to 32 µg/mL. The figures for the “effect on viable MAC units in blood” value in the series with MAC 101 (serotype 1) [3] (listed as Free gentamicin) and in the series with MAC 101 (serotype 1) [3] (listed as free gentamicin) were “no measurable activity against MAC in the bloodstream” and “no appreciable inhibitory effect; also recorded: No appreciable inhibition; also recorded: largely ineffective”, respectively. The “effect on MAC in the blood” value in the series on MAC 101 (serotype 1) [3] was “not gentamicin”.

Values taken from patent publication US4952405A, “Method of treating M. avium infection” (Liposome Technology, Inc., priority 1988, dated 1990).
